Laboratory results as given in PubChem BioAssay (NCI).
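Assay format: 96-well plates, 48-hour exposure. GI50: concentration for 50% inhibition of growth. At the TGI there is no net growth.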

How the values were obtained:
Experiment in all cases: NCI tumour cell line growth inhibition, 48 h
M14 melanoma = system: M14 melanoma
SF-539 CNS = system: SF-539 CNS
SF-268 CNS = system: SF-268 CNS
786-0 renal = system: 786-0 renal
HOP-62 NSCLC = system: HOP-62 NSCLC
HCC-2998 colon = system: HCC-2998 colon
K-562 leukemia = system: K-562 leukemia
HL-60(TB) leukemia = system: HL-60(TB) leukemia
SN12C renal = system: SN12C renal
A549 NSCLC = system: A549 NSCLC
CAKI-1 renal = system: CAKI-1 renal
MDA-MB-435 = system: MDA-MB-435
SNB-19 CNS = system: SNB-19 CNS
SK-MEL-28 melanoma = system: SK-MEL-28 melanoma
T-47D breast = system: T-47D breast
OVCAR-3 ovarian = system: OVCAR-3 ovarian
MDA-MB-468 breast = system: MDA-MB-468 breast
HOP-92 NSCLC = system: HOP-92 NSCLC
IGROV1 ovarian = system: IGROV1 ovarian
SK-MEL-5 melanoma = system: SK-MEL-5 melanoma
MOLT-4 leukemia = system: MOLT-4 leukemia
ACHN renal = system: ACHN renal
SNB-75 CNS = system: SNB-75 CNS
TK-10 renal = system: TK-10 renal
HCT-116 colon = system: HCT-116 colon
PC-3 prostate = system: PC-3 prostate
DU-145 prostate = system: DU-145 prostate
NCI-H460 lung = system: NCI-H460 lung
MCF7 breast = system: MCF7 breast
SW-620 colon = system: SW-620 colon
UO-31 renal = system: UO-31 renal
NCI-H522 lung = system: NCI-H522 lung
SF-295 CNS = system: SF-295 CNS
KM12 colon = system: KM12 colon
HS 578T breast = system: HS 578T breast
LOX IMVI melanoma = system: LOX IMVI melanoma
HT29 colon = system: HT29 colon
SK-OV-3 ovarian = system: SK-OV-3 ovarian
A498 renal = system: A498 renal
EKVX NSCLC = system: EKVX NSCLC
HCT-15 colon = system: HCT-15 colon
BT-549 breast = system: BT-549 breast
OVCAR-8 ovarian = system: OVCAR-8 ovarian
UACC-62 melanoma = system: UACC-62 melanoma
COLO 205 colon = system: COLO 205 colon
RXF 393 renal = system: RXF 393 renal
MALME-3M melanoma = system: MALME-3M melanoma
OVCAR-5 ovarian = system: OVCAR-5 ovarian
OVCAR-4 ovarian = system: OVCAR-4 ovarian
UACC-257 melanoma = system: UACC-257 melanoma
U251 CNS = system: U251 CNS
NCI-H23 lung = system: NCI-H23 lung
MDA-MB-231 breast = system: MDA-MB-231 breast
NCI-H226 lung = system: NCI-H226 lung
SR leukemia = system: SR leukemia
RPMI-8226 leukemia = system: RPMI-8226 leukemia
SK-MEL-2 melanoma = system: SK-MEL-2 melanoma
CCRF-CEM leukemia = system: CCRF-CEM leukemia

Compound: Cc1cc(C(F)(F)F)ccc1C(=O)Nc1sc2c(c1C#N)CCC(=O)C2
- GI50 (M14 melanoma): 1390 nM
- TGI (M14 melanoma): 3610 nM
- GI50 (SF-539 CNS): 496 nM
- TGI (SF-539 CNS): 1900 nM
- GI50 (SF-268 CNS): 2830 nM
- TGI (SF-268 CNS): 20500 nM
- GI50 (786-0 renal): 3510 nM
- TGI (786-0 renal): > 100000 nM
- GI50 (HOP-62 NSCLC): 3100 nM
- TGI (HOP-62 NSCLC): > 100000 nM
- GI50 (HCC-2998 colon): 2730 nM
- TGI (HCC-2998 colon): 9210 nM
- GI50 (K-562 leukemia): 240 nM
- TGI (K-562 leukemia): > 100000 nM
- GI50 (HL-60(TB) leukemia): 448 nM
- TGI (HL-60(TB) leukemia): 13700 nM
- GI50 (SN12C renal): 1640 nM
- TGI (SN12C renal): 10900 nM
- GI50 (A549 NSCLC): 3420 nM
- TGI (A549 NSCLC): 23100 nM
- GI50 (CAKI-1 renal): 1320 nM
- TGI (CAKI-1 renal): 2950 nM
- GI50 (MDA-MB-435): 1880 nM
- TGI (MDA-MB-435): 4340 nM
- GI50 (SNB-19 CNS): 3910 nM
- TGI (SNB-19 CNS): > 100000 nM
- GI50 (SK-MEL-28 melanoma): 1240 nM
- TGI (SK-MEL-28 melanoma): 2620 nM
- GI50 (T-47D breast): 453 nM
- TGI (T-47D breast): 2520 nM
- GI50 (OVCAR-3 ovarian): 1400 nM
- TGI (OVCAR-3 ovarian): 3240 nM
- GI50 (MDA-MB-468 breast): 1540 nM
- TGI (MDA-MB-468 breast): 5040 nM
- GI50 (HOP-92 NSCLC): 957 nM
- TGI (HOP-92 NSCLC): 2620 nM
- GI50 (IGROV1 ovarian): 3420 nM
- TGI (IGROV1 ovarian): 13500 nM
- GI50 (SK-MEL-5 melanoma): 1540 nM
- TGI (SK-MEL-5 melanoma): 2960 nM
- GI50 (MOLT-4 leukemia): 619 nM
- TGI (MOLT-4 leukemia): 12300 nM
- GI50 (ACHN renal): 1090 nM
- TGI (ACHN renal): 2570 nM
- GI50 (SNB-75 CNS): 1030 nM
- TGI (SNB-75 CNS): 6740 nM
- GI50 (TK-10 renal): 1590 nM
- TGI (TK-10 renal): 24900 nM
- GI50 (HCT-116 colon): 411 nM
- TGI (HCT-116 colon): 10300 nM
- GI50 (PC-3 prostate): 333 nM
- TGI (PC-3 prostate): 3280 nM
- GI50 (DU-145 prostate): 3570 nM
- TGI (DU-145 prostate): > 100000 nM
- GI50 (NCI-H460 lung): 3160 nM
- TGI (NCI-H460 lung): 69600 nM
- GI50 (MCF7 breast): 1780 nM
- TGI (MCF7 breast): 11300 nM
- GI50 (SW-620 colon): 504 nM
- TGI (SW-620 colon): 2570 nM
- GI50 (UO-31 renal): 1120 nM
- TGI (UO-31 renal): 2380 nM
- GI50 (NCI-H522 lung): 288 nM
- TGI (NCI-H522 lung): 1010 nM
- GI50 (SF-295 CNS): 2010 nM
- TGI (SF-295 CNS): 5910 nM
- GI50 (KM12 colon): 1080 nM
- TGI (KM12 colon): 5000 nM
- GI50 (HS 578T breast): 2240 nM
- TGI (HS 578T breast): 22600 nM
- GI50 (LOX IMVI melanoma): 1060 nM
- TGI (LOX IMVI melanoma): 3730 nM
- GI50 (HT29 colon): 973 nM
- TGI (HT29 colon): 3430 nM
- GI50 (SK-OV-3 ovarian): 9210 nM
- TGI (SK-OV-3 ovarian): 28500 nM
- GI50 (A498 renal): 23200 nM
- TGI (A498 renal): 93500 nM
- GI50 (EKVX NSCLC): 2630 nM
- TGI (EKVX NSCLC): 12000 nM
- GI50 (HCT-15 colon): 552 nM
- TGI (HCT-15 colon): 2360 nM
- GI50 (BT-549 breast): 591 nM
- TGI (BT-549 breast): 3040 nM
- GI50 (OVCAR-8 ovarian): 1800 nM
- TGI (OVCAR-8 ovarian): 27300 nM
- GI50 (UACC-62 melanoma): 1220 nM
- TGI (UACC-62 melanoma): 2670 nM
- GI50 (COLO 205 colon): 2030 nM
- TGI (COLO 205 colon): 3680 nM
- GI50 (RXF 393 renal): 659 nM
- TGI (RXF 393 renal): 3090 nM
- GI50 (MALME-3M melanoma): 1450 nM
- TGI (MALME-3M melanoma): 3010 nM
- GI50 (OVCAR-5 ovarian): 2020 nM
- TGI (OVCAR-5 ovarian): 5940 nM
- GI50 (OVCAR-4 ovarian): 1250 nM
- TGI (OVCAR-4 ovarian): 2940 nM
- GI50 (UACC-257 melanoma): 1900 nM
- TGI (UACC-257 melanoma): 5280 nM
- GI50 (U251 CNS): 2250 nM
- TGI (U251 CNS): 13200 nM
- GI50 (NCI-H23 lung): 1710 nM
- TGI (NCI-H23 lung): 6500 nM
- GI50 (MDA-MB-231 breast): 1560 nM
- TGI (MDA-MB-231 breast): 3390 nM
- GI50 (NCI-H226 lung): 2830 nM
- TGI (NCI-H226 lung): 18500 nM

Compound: Cn1cc(-c2cc(N)n3nc(-c4c[nH]c5ccc(Br)cc45)cc3n2)c2cccnc21
- GI50 (SR leukemia): 2720 nM
- TGI (SR leukemia): > 100000 nM
- GI50 (SF-539 CNS): 1580 nM
- TGI (SF-539 CNS): 2970 nM
- GI50 (SF-268 CNS): 2030 nM
- TGI (SF-268 CNS): 4710 nM
- GI50 (786-0 renal): 1570 nM
- TGI (786-0 renal): 3000 nM
- GI50 (HCC-2998 colon): 1820 nM
- TGI (HCC-2998 colon): 3270 nM
- GI50 (SN12C renal): 1820 nM
- TGI (SN12C renal): 3720 nM
- GI50 (CAKI-1 renal): 1800 nM
- TGI (CAKI-1 renal): 3860 nM
- GI50 (MDA-MB-435): 1700 nM
- TGI (MDA-MB-435): 3160 nM
- GI50 (T-47D breast): 2030 nM
- TGI (T-47D breast): 5070 nM
- GI50 (OVCAR-3 ovarian): 1670 nM
- TGI (OVCAR-3 ovarian): 3120 nM
- GI50 (MDA-MB-468 breast): 1590 nM
- TGI (MDA-MB-468 breast): 3240 nM
- GI50 (SK-MEL-5 melanoma): 1750 nM
- TGI (SK-MEL-5 melanoma): 3280 nM
- GI50 (SNB-75 CNS): 1290 nM
- TGI (SNB-75 CNS): 2570 nM
- GI50 (TK-10 renal): 2110 nM
- TGI (TK-10 renal): 7400 nM
- GI50 (DU-145 prostate): 1820 nM
- TGI (DU-145 prostate): 3400 nM
- GI50 (MCF7 breast): 3010 nM
- TGI (MCF7 breast): > 100000 nM
- GI50 (RPMI-8226 leukemia): 4040 nM
- TGI (RPMI-8226 leukemia): > 100000 nM
- GI50 (NCI-H522 lung): 1850 nM
- TGI (NCI-H522 lung): 3540 nM
- GI50 (SF-295 CNS): 2200 nM
- TGI (SF-295 CNS): 5090 nM
- GI50 (KM12 colon): 1780 nM
- TGI (KM12 colon): 3350 nM
- GI50 (HS 578T breast): 2320 nM
- TGI (HS 578T breast): 5610 nM
- GI50 (LOX IMVI melanoma): 1820 nM
- TGI (LOX IMVI melanoma): 3210 nM
- GI50 (SK-MEL-2 melanoma): 17200 nM
- TGI (SK-MEL-2 melanoma): 40000 nM
- GI50 (SK-OV-3 ovarian): 22800 nM
- TGI (SK-OV-3 ovarian): 44400 nM
- GI50 (A498 renal): 1720 nM
- TGI (A498 renal): 3630 nM
- GI50 (EKVX NSCLC): 2340 nM
- TGI (EKVX NSCLC): 6040 nM
- GI50 (HCT-15 colon): 2710 nM
- TGI (HCT-15 colon): 8280 nM
- GI50 (CCRF-CEM leukemia): 3840 nM
- TGI (CCRF-CEM leukemia): > 100000 nM
- GI50 (UACC-62 melanoma): 1730 nM
- TGI (UACC-62 melanoma): 3170 nM
- GI50 (RXF 393 renal): 1650 nM
- TGI (RXF 393 renal): 3240 nM
- GI50 (MALME-3M melanoma): 1520 nM
- TGI (MALME-3M melanoma): 2910 nM
- GI50 (OVCAR-5 ovarian): 1410 nM
- TGI (OVCAR-5 ovarian): 3240 nM
- GI50 (UACC-257 melanoma): 1750 nM
- TGI (UACC-257 melanoma): 3480 nM
